Measured values published in PubChem BioAssay AID1645868 (Buhrlage Lab, Dana-Farber Cancer Institute and Novartis …, 2021).
Calls of active or inactive are those of the source.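 The calls were made as follows: active = maximal percent inhibition of the deubiquitinase OTUD3 of at least 30% across the tested doses; inactive = the rest.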

These compounds were tested against OTU domain-containing protein 3 (Homo sapiens) (UniProt Q5T2D3) (assay: Validation of screening hits, potency titration, in vitro enzymatic, OTU domain-containing protein 3 DUB inhibitors (AID 1645868)). Settings: purified OTUD3, ubiquitin-rhodamine cleavage fluorescence, 2 h.
Chain of OTU domain-containing protein 3 (Homo sapiens) (Q5T2D3 whole entry, looked up, the tested form may be a part): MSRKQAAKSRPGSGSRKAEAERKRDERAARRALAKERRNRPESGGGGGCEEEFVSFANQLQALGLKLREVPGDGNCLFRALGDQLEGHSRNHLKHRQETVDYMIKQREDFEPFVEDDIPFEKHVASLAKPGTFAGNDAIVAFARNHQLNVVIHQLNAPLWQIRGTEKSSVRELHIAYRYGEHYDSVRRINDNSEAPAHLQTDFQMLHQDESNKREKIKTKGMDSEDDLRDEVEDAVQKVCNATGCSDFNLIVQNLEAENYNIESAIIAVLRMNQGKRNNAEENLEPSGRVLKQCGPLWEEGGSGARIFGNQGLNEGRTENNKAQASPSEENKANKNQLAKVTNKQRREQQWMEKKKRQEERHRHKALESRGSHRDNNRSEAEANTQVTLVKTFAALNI

| Compound | IC50 |
| --- | --- |
| COc1cc(OC)cc(-n2c(=O)c3sccc3n(CC(=O)Nc3ccc(C)cc3)c2=O)c1 | 21.1 µM |
| O=[N+]([O-])c1ccc(NCC2COc3ccccc3O2)c(Cl)c1 (stereo not drawn) | > 50 µM (inactive) |
| Cc1ccc(-c2nc(Cn3cnc4ccccc4c3=O)cs2)cc1 | 18.9 µM |
| C[C@@H]1OC2=C(C(=O)c3cccc(O)c3C2=O)[C@H](O)[C@@H]1O | 4.45 µM |
| O=C(CSc1nnc2n1CCCCC2)Nc1ccc2[nH]c(=O)[nH]c2c1 | > 50 µM (inactive) |
| CS(=O)(=O)NC1CCCN(C(=O)Nc2cccc3ccccc23)C1 (stereo not drawn) | > 50 µM (inactive) |
| COc1ccc(C(=O)Nc2cc3c4c(c2)C(C)C(=O)N4CCC3)cc1 (stereo not drawn) | > 50 µM (inactive) |
| COC1=C(C2=C(OC)C(=O)c3cc4c(c(O)c3C2=O)C(=O)OC(C)C4)C(=O)c2c(cc3c(c2O)C(=O)OC(C)C3)C1=O (stereo not drawn) | 3.28 µM |
| Cc1cccc(C(=O)Nc2ccccc2Sc2nc3c(c(=O)n(C)c(=O)n3C)n2C)c1 | > 50 µM (inactive) |
| Cc1nn(CC(=O)NCc2ccccc2F)c2ccccc12 | > 50 µM (inactive) |
| O=C(NCCc1ccco1)c1ccc(N2CCOc3ccccc32)s1 | 28.4 µM |
| COc1ccc(NC(=O)c2nnn(-c3ccccc3F)c2C)cc1OC | > 50 µM (inactive) |
| Cc1c(C(=O)Nc2cccc(C(F)(F)F)c2)cnn1-c1ccccn1 | > 50 µM (inactive) |
| Cc1ccc2c(=O)c3c([nH]c2c1C)CCN(CC(=O)NCc1ccccc1)C3 | > 50 µM (inactive) |
| Cc1ccccc1C(=O)OCCN1C(=O)c2cccc3c(N4CCCCC4)ccc(c23)C1=O | > 50 µM (inactive) |
| CC(=O)c1ccc(NC(=O)CC2C(=O)Nc3nc4ccccc4n32)cc1 (stereo not drawn) | 37.2 µM |
| O=C(Cc1ccccc1F)Nc1nc(-c2ccco2)c(-c2ccco2)s1 | > 50 µM (inactive) |
| O=C1C[C@@H](O)[C@H](O)[C@@]23O[C@@]12C1(Oc2cccc4cccc(c24)O1)[C@@H]1O[C@@H]1[C@@H]3O | 41.3 µM |
| Cc1cc(C)c(NC(=O)Cn2c(=O)n(CCC(=O)NCc3ccc4c(c3)OCO4)c(=O)c3sccc32)c(C)c1 | 12.6 µM |
| COc1ncccc1CN1CCn2c(Cn3cncn3)cnc2C1C (stereo not drawn) | > 50 µM (inactive) |
| COc1ccc2nc3c(cc2c1)c(=O)n(C)c1c3c(=O)n(-c2ccccc2)c(=O)n1-c1ccccc1 | > 50 µM (inactive) |

| Compound | IC50 |
| --- | --- |
| Fc1ccc(Nc2nc(Nc3cccc(F)c3)nc3nccnc23)cc1 | > 50 µM (inactive) |
| COc1cnc(CSc2ncccn2)cc1OCC(=O)Nc1cc(C)ccc1C | > 50 µM (inactive) |
| CC(C)N1C[C@@H]2C[C@H](NS(=O)(=O)c3cccc(C#N)c3)CN2Cc2ccccc21 | > 50 µM (inactive) |
| COc1ccccc1OCc1ccc(C(=O)Nc2ccc(F)cc2C)cc1 | > 50 µM (inactive) |
| COc1ccc(-n2c(=O)c(CCC(=O)O)nc3ccccc32)cc1 | > 50 µM (inactive) |
| COc1ccc(CCN2COc3c(cc(Cl)c4cccnc34)C2)cc1OC | 21.7 µM |
| O=C(Cn1cc(C(=O)C(F)(F)F)c2ccccc21)N1CCc2ccccc21 | 4.98 µM |
| O=C(COc1ccc(Cl)cc1Cl)Nc1ccccc1-c1nc2ccccc2[nH]1 | 6.12 µM |
| O=[N+]([O-])c1cccc(CSc2nnc(/C=C/c3ccccc3)o2)c1 | > 50 µM (inactive) |
| COc1ccccc1CNC(=O)c1ccccc1OCc1ccccc1Cl | > 50 µM (inactive) |
| O=C(Nc1oc2ccccc2c(=O)c1-c1ccc2c(c1)OCO2)C1CCCCC1 | > 50 µM (inactive) |
| O=C1CC(c2ccco2)Cc2[nH]c(=O)c(-c3nc(-c4ccc(Cl)cc4)cs3)cc21 (stereo not drawn) | > 50 µM (inactive) |
| COc1ccc(C(C)=O)cc1CC(=O)Nc1nc2ccccc2[nH]1 | > 50 µM (inactive) |
| Cc1cc(O)c2c3c(c(O)cc2c1)C(=O)c1c(O)cccc1C3=O | 4.84 µM |
| CCNc1oc(-c2ccc(S(=O)(=O)N3CCCCC3)cc2)nc1C#N | > 50 µM (inactive) |
| Cc1cc(Cl)ccc1NC(=O)c1cc(-c2cccnc2)n[nH]1 | > 50 µM (inactive) |
| COC(=O)c1cc2c(ccn2C)n1CC(=O)NC1CCCC1 | > 50 µM (inactive) |
| COc1ccc(COc2ccc3c(C)c(CC(=O)N4CC[C@@]5(O)CCCC[C@H]5C4)c(=O)oc3c2)cc1 | 4.62 µM |
| COc1cc2c(oc(=O)c3cc(C)cc(OC)c32)c2c([C@@H]3OC(C)[C@@H](O)[C@@](C)(O)C3O)ccc(O)c12 (stereo partly drawn) | > 50 µM (inactive) |
| NS(=O)(=O)c1cccc(NC(=O)CN2CCCc3ccccc32)c1 | > 50 µM (inactive) |

Other lines, results leading:

| IC50 | Compound |
| --- | --- |
| > 50 µM (inactive) | CCn1cnc2ccc(C(=O)NC3CC3)cc2c1=O |
| > 50 µM (inactive) | CCCc1nc2sc3c(NCCN4CCOCC4)ncnc3c2c2c1CCC2 |
| 21.5 µM | O=C(COc1ccc2c(-c3ccccc3)cc(=O)oc2c1)Nc1cccnc1 |
| > 50 µM (inactive) | Cc1cc(-n2c(C)cc(-c3csc(N)n3)c2C)no1 |
| > 50 µM (inactive) | COc1ccc(NC(=O)c2nnn(-c3ccccc3)c2C)cc1OC |
| > 50 µM (inactive) | N#Cc1c(SCCO)nc(N2CCCC2)c2c1CCCC2 |
| > 50 µM (inactive) | Cc1ccc(C)c(-n2c(N)c(C(=O)NCCc3ccccc3)c3nc4ccccc4nc32)c1 |
| > 50 µM (inactive) | CC(OC(=O)c1cn(-c2ccccc2)nc1-c1cccnc1)C(=O)Nc1cccc(S(=O)(=O)N(C)C)c1 (stereo not drawn) |
| > 50 µM (inactive) | COc1ccc(Nc2ncc(C(=O)Nc3ccc(Oc4ccccc4)cc3)c3ccccc23)cc1 |
| 39.4 µM | O=C(COc1ccccc1-c1nnc(-c2ccccc2)o1)Nc1ccc(F)cc1F |
| > 50 µM (inactive) | CC(=O)Nc1cc2cc(-n3cccc3)ccc2oc1=O |
| > 50 µM (inactive) | Cc1sc2ncn3c(=O)n(CC(=O)Nc4ccc(F)c(Cl)c4)nc3c2c1C |
| > 50 µM (inactive) | O=C1NCc2c1c1c3ccccc3[nH]c1c1[nH]c3ccccc3c21 |
| > 50 µM (inactive) | Oc1ccc(-c2nc3cnccn3c2NCCc2ccccc2)c(O)c1 |
| > 50 µM (inactive) | CCCCN(CC)c1ncnc2c1sc1nc(-c3ccco3)c3c(c12)CC(C)(C)OC3 |
| > 50 µM (inactive) | Cc1cc(C(=O)N2CCOCC2)c(C)n1-c1ccc(O)cc1 |
| > 50 µM (inactive) | O=C(c1ccc2ncccc2c1)N1CCC2(C1)Nc1cccnc1NC2=NC1CCCC1 (stereo not drawn) |
| 43.5 µM | N#Cc1ccccc1Cn1c(=O)n(CCCCC(=O)NCc2ccco2)c(=O)c2ccccc21 |
| > 50 µM (inactive) | COc1ccccc1-c1nc(-c2cn(-c3ccc(C)cc3)nn2)no1 |
| > 50 µM (inactive) | Cn1ccc2c(cc(C(=O)NCCC3=CCCCC3)n2C)c1=O |
| > 50 µM (inactive) | COc1cccc(-n2c(CNCc3cccnc3)nc3ccc([N+](=O)[O-])cc3c2=O)c1 |
| > 50 µM (inactive) | Cc1ccc(NC(=O)c2cc(-c3cccnc3)n(-c3ccccc3)n2)nc1 |
| > 50 µM (inactive) | Cc1nc2cc(NC(=O)C3CN(C(=O)c4cnccn4)C3)ccc2s1 |
| > 50 µM (inactive) | CC(C)NS(=O)(=O)c1ccc(OCC(=O)N2CCC(Cc3ccccc3)CC2)cc1 |
| > 50 µM (inactive) | CC1=C2C(=NCCN1)C(=O)N(c1ccccc1)C2c1cccnc1 (stereo not drawn) |
| > 50 µM (inactive) | O=C(Cc1ccccc1F)N1CCC2(CC1)CC1(CO2)Nc2ccccc2-n2cccc21 (stereo not drawn) |
| > 50 µM (inactive) | CO[C@H]1/C=C/OC2(C)Oc3c(C)c(O)c4c(c3C2=O)C2(C=C(NC(=O)/C(C)=C\C=C\[C@H](C)[C@H](O)[C@@H](C)[C@@H](O)[C@@H](C)[C@H](OC(C)=O)C1C)C4=O)OCC(=O)O2 (stereo partly drawn) |
